Measured values published in article PMC9960827, “Cloning and Characterization of Trypanosoma congolense and T. vivax Nucleoside Transporters Reveal the Potential of P1-Type Carriers for the Discovery of Broad-Spectrum Nucleoside-Based Therapeutics against Animal African Trypanosomiasis” (International Journal of Molecular Sciences, 2023).
Where “and” joins values, the source holds several entries; their conditions need not be identical. Identical values can stand only once. Like-named read-outs stand apart in the source and are kept apart here.

Legend:
TcoAT1 = type: cell-based, Trypanosoma congolense; settings: for Ki: 0.05 µM [3H]-adenosine, 10 s, IC50 converted to Ki, read-out: Ki on the transport of [3H]-adenosine; for ΔG0: Gibbs free energy of binding, from Km or Ki; for δ(ΔG0): loss of Gibbs free energy of binding relative to the parent nucleoside
Excerpt: (§1) The information for the T. congolense adenosine transporter (TcoAT1) and four putative T. vivax nucleoside transporters was obtained in the TritrypDB (tritrypdb.org/tritrypdb) genome database. Primers were designed to flank each gene upstream of the 5′ end (forward) and downstream of the 3′ end (reverse) as described (primer sequences in Supplementary Table S2). Following amplification from the genomic DNA of T. congolense or T. vivax, DNA for each extracted gene was ligated into the pNUS-HcN expression vector doubly digested with NdeI using the NEBuilder kit according to the manufacturer’s instructions (New England Biolabs). Construct was transformed into competent E. coli cells, and ligation was confirmed by restriction enzyme digestion of isolated plasmid DNA followed by Sanger sequencing (Source BioScience, Nottingham, UK). Confirmed plasmids were then transfected into L. mexicana cell line in which both NT1 and NT2 were doubly knocked out (SUPKO) and derived from L. mexicana Cas9 [64] as described. Clones grown in medium containing 50 μg/mL neomycin (G418) were collected for further confirmation by PCR with genomic DNA using a forward primer of the transporter gene and a reverse primer of the plasmid.
(§2) Uptake assays using radiolabeled trypanocides and/or nucleosides were carried out as described previously. Briefly, parasite cultures were harvested, washed twice in assay buffer (33 mM HEPES, 98 mM NaCl, 4.6 mM KCl, 0.5 mM CaCl2, 0.07 mM MgSO4, 5.8 mM NaH3PO4, 0.03 mM MgCl2, 23 mM NaHCO3, 14 mM D-glucose, pH 7.3), then resuspended and adjusted to a density of 1 × 10^8 cells/mL in assay buffer. The radiolabeled permeant in the presence or absence of different concentrations of potential inhibitors reconstituted in 100 μL assay buffer was deposited on top of 250 μL oil mix in microcentrifuge tubes; 1 × 10^7 parasites in 100 μL assay buffer were added to the tube and incubated for a pre-determined interval. The reaction was stopped by the addition of 1 mL of a high concentration of ice-cold unlabeled substrate in assay buffer (‘stop solution’) and centrifugation, or by immediate centrifugation at […] as appropriate. The microcentrifuge tubes were flash-frozen, and the bottom of each tube containing the cell pellet was cut off and transferred to a scintillation vial. Cell pellets were lysed in 2% SDS, after which scintillation fluid (Scintlogic U, Lablogic) was added, followed by overnight incubation in the dark. Scintillation was measured in a 300SL (Hidex) scintillation counter (Hidex). All the assays were conducted in triplicate and analysis was carried out using Microsoft Excel and GraphPad Prism. All kinetic parameters were obtained on at least 3 separate occasions.
(§3) The dose-dependent uptake assay allowed for the affinity of nucleoside analogs to different nucleoside transporters to be determined by measuring the extent to which the analogs compete with and inhibit the uptake of radiolabel adenosine. This allowed for the determination of biochemical parameters such as Km and Vmax through the application of the Michaelis–Menten equation V0 = Vmax([substrate]/([substrate] + Km)). The 50% Inhibitory Concentration (IC50) of the purines and pyrimidines and their analogs was determined from non-linear regression to sigmoid curves with variable slope (Prism 8), and the IC50 of the inhibitor and the Km of the labeled permeant were then used to calculate the inhibition constant (Ki) of the analogs through the Cheng–Prusoff equation: Ki = IC50/(1 + (L/Km)), where L denotes the radiolabel concentration. The calculated Ki was in turn used to determine the Gibbs free energy (ΔG^0) of the inhibitor–transporter interaction using the equation: ΔG^0 = -RTln(Ki), where R represents the gas constant and T symbolizes the absolute temperature in Kelvin [104].

TvxNT3 = TvxNT3 (Trypanosoma vivax, UniProt F9WV62); assay: cell-based; type: cell-based; settings: for ΔG0: Gibbs free energy of interaction, from Km or Ki; for δ(ΔG0): difference in ΔG0 relative to the parent purine (adenosine or inosine); for remaining activity at 100 µM: read-out: [3H]-adenosine uptake remaining in presence of inhibitor
Excerpt: as §1, §2, §3

L. mexicana Cas9 = assay: Resazurin drug sensitivity assay, LmexCas9; type: cell-based, Leishmania mexicana; settings: read-out: LmexCas9 EC50
Procedure: (§4) EC50 values were determined by plotting to an equation for a sigmoid curve with variable slope (GraphPad Prism 8). All values were the average of at least three independent determinations on different days.

L. mexicana SUPKO+TcoAT1 = assay: microbe, parasite or virus in culture; type: cell-based, Leishmania mexicana; settings: for EC50: read-out: SUPKO+TcoAT1 EC50
Procedure: as §4

L. mexicana SUPKO+TvxNT3 = assay: microbe, parasite or virus in culture; type: cell-based, Leishmania mexicana; settings: for EC50: read-out: SUPKO+TvxNT3 EC50
Procedure: as §4

L. mexicana SUPKO = assay: microbe, parasite or virus in culture; type: cell-based, Leishmania mexicana
Procedure: as §4

[1] = biological target: T. congolense adenosine transporter; assay: [3H]-adenosine uptake and its inhibition in T. congolense IL3000 bloodstream forms; type: cell-based, Trypanosoma congolense; settings: for Ki: 0.05 µM [3H]-adenosine, 30 s, IC50 converted to Ki, read-out: Ki on the transport of [3H]-adenosine; for ΔG0, Gibbs free energy of interaction: calculated from Km or Ki; for Ki values fold higher than those for the purines: inhibition of adenosine uptake
Procedure: as §2, §3

[2] = biological target: T. b. brucei P1 (TbP1/NT2); settings: cited from earlier work; for Ki: T. b. brucei bloodstream forms, read-out: Tbb P1 Ki
[3] = Resistance Factor relative to SUPKO
[4] = resazurin, promastigotes, read-out: SUPKO EC50

Sequence of TvxNT3 (F9WV62 entry or part of it): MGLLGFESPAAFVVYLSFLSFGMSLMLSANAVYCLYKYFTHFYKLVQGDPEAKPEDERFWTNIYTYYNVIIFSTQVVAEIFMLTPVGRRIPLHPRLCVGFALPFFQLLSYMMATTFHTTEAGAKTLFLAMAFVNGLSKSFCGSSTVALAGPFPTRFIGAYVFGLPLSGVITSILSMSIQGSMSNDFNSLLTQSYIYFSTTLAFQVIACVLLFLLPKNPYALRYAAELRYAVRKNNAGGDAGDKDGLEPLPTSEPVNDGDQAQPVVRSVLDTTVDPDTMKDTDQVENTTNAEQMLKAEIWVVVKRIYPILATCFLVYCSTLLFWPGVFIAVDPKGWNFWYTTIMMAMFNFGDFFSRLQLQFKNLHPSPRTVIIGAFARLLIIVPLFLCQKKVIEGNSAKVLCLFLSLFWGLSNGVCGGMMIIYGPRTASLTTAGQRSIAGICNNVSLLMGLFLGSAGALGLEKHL

Row | SMILES | Ki (TcoAT1) | ΔG0 (TcoAT1) | δ(ΔG0) (TcoAT1) | ΔG0 (TvxNT3) | δ(ΔG0) (TvxNT3) | further results
1 | Nc1ccnc2c1ncn2[C@@H]1O[C@H](CO)[C@@H](O)[C@H]1O [1-deazaadenosine] | 1.03 ± 0.34 µM | -8.17 kcal/mol | 0.535 kcal/mol | – | – | –
2 | Nc1ncnc2c1ncn2[C@H]1CC[C@@H](CO)O1 [2′,3′-dideoxyadenosine] | 51.9 ± 2.6 µM | -5.83 kcal/mol | 2.856 kcal/mol | – | – | –
3 | OC[C@@H]1CC[C@H](n2cnc3c(O)ncnc32)O1 [2′,3′-dideoxyinosine] | 85.4 ± 7.1 µM | -5.54 kcal/mol | 2.99 kcal/mol | – | – | –
4 | Nc1ncnc2c1ncn2[C@H]1C[C@H](O)[C@@H](CO)O1 [2′-deoxyadenosine] | 0.5 ± 0.07 µM | -8.6 kcal/mol | 0.105 kcal/mol | -8.15 kcal/mol | 0.167 kcal/mol | –
5 | Nc1nccc2c1ncn2[C@@H]1O[C@H](CO)[C@@H](O)[C@H]1O [3-deazaadenosine] | 138 ± 37 µM | -5.26 kcal/mol | 3.44 kcal/mol and 3.435 kcal/mol | – | – | –
6 | OC[C@H]1O[C@@H](n2cnc3c(O)nccc32)[C@H](O)[C@@H]1O [3-deazainosine] | – | – | – | -6.12 kcal/mol | – | –
7 | C[C@H]1O[C@@H](n2cnc3c(N)ncnc32)[C@H](O)[C@@H]1O [5′-deoxyadenosine] | 0.45 ± 0.08 µM | -8.65 kcal/mol | 0.043 kcal/mol | -8.13 kcal/mol | 0.151 kcal/mol | –
8 | OC[C@H]1O[C@@H](n2cnc3c(S)ncnc32)[C@H](O)[C@@H]1O [6-thioinosine] | – | – | – | -7.36 kcal/mol | – | –
9 | Nc1ncnc2[nH]cnc12 [Adenine] | 761 ± 103 µM | -4.25 kcal/mol | 4.446 kcal/mol | -7.658 kcal/mol | -0.32 kcal/mol | Ki (TcoAT1; listed as ADE): 786 µM; δ(ΔG0) (TvxNT3; listed as adenine): 0.32 kcal/mol; remaining activity at 100 µM (TvxNT3): < 25%
10 | COc1ncnc2c1ccn2[C@@H]1O[C@H](CO)[C@@H](O)[C@H]1O [CL4510, 6-methoxy-7-deazapurine riboside] | 226 ± 26 µM | -4.97 kcal/mol | – | -6.55 kcal/mol | – | Ki (TvxNT3; 50 nM [3H]-adenosine, 90 s, IC50 converted to Ki, read-out: Ki on the transport of [3H]-adenosine): 16.1 ± 2.8 µM; EC50 (L. mexicana Cas9; resazurin, promastigotes): 0.39 ± 0.05 µM; SUPKO+TcoAT1 RF (SUPKO) (L. mexicana SUPKO+TcoAT1; [3]): 1.03; EC50 (L. mexicana SUPKO+TcoAT1; resazurin, promastigotes): 2.2 ± 0.03 µM; SUPKO+TvxNT3 RF (SUPKO) (L. mexicana SUPKO+TvxNT3; [3]): 1.1; EC50 (L. mexicana SUPKO+TvxNT3; resazurin, promastigotes): 2.05 ± 0.04 µM; SUPKO RF (Cas9) (L. mexicana SUPKO; Resistance Factor = EC50(SUPKO)/EC50(Cas9)): 5.84; EC50 (L. mexicana SUPKO; [4]): 2.3 µM and 2.28 µM
11 | Nc1ccn([C@@H]2O[C@H](CO)[C@@H](O)[C@H]2O)c(=O)n1 [Cytidine] | 1580 ± 69.2 µM | -3.82 kcal/mol | 4.878 kcal/mol | – | – | Ki [1]: 1180 ± 148 µM; ΔG0, Gibbs free energy of interaction [1]: -3.99 kcal/mol; Ki values fold higher than those for the purines [1]: > 90 fold; Ki [2]: > 250 µM
12 | Nc1nc2c(ncn2[C@@H]2O[C@H](CO)[C@@H](O)[C@H]2O)c(=O)[nH]1 [Guanosine] | 0.8 ± 0.09 µM | -8.32 kcal/mol | 0.387 kcal/mol | -7.995 kcal/mol | 0.017 kcal/mol | Ki [1]: 1.06 ± 0.07 µM; ΔG0, Gibbs free energy of interaction [1]: -8.15 kcal/mol; remaining activity at 100 µM (TvxNT3; 100 µM inhibitor, 50 nM [3H]-adenosine): < 25%; Ki [2]: 1.8 ± 0.3 µM; Tbb P1 ΔG0 [2]: -7.82 kcal/mol
13 | O=c1[nH]cnc2nc[nH]c12 [Hypoxanthine] | 61.2 ± 3.26 µM | -5.74 kcal/mol | 2.792 kcal/mol | -7.851 kcal/mol | -1.78 kcal/mol | δ(ΔG0) (TvxNT3; listed as hypoxanthine): 1.34 kcal/mol; remaining activity at 100 µM (TvxNT3): < 25%
14 | OC[C@H]1O[C@@H](n2cnc3cncnc32)[C@H](O)[C@@H]1O [Nebularine] | – | – | – | -7.27 kcal/mol | -0.703 kcal/mol | δ(ΔG0) (TvxNT3; listed as nebularine): 0.693 kcal/mol
15 | Nc1ncnc2c1c(-c1ccccc1)cn2C1OC(CO)C(O)C1O (centres unmarked) [TH1012, 7-phenyltubercidin] | 146 ± 58 µM | -5.23 kcal/mol | – | – | – | –
16 | Cc1cn([C@H]2C[C@H](O)[C@@H](CO)O2)c(=O)[nH]c1=O [Thymidine] | 434 ± 46.4 µM | -4.59 kcal/mol | 4.113 kcal/mol | -4.391 kcal/mol | -3.587 kcal/mol | Ki [1]: 94.6 ± 11.5 µM; ΔG0, Gibbs free energy of interaction [1]: -5.5 kcal/mol; Ki values fold higher than those for the purines [1]: > 90 fold; Ki (TcoAT1; listed as TMD): 49.6 µM; Ki [2]: 44 ± 10 µM
17 | O=c1ccn([C@@H]2O[C@H](CO)[C@@H](O)[C@H]2O)c(=O)[nH]1 [Uridine] | 1470 ± 172 µM | -3.87 kcal/mol | 4.835 kcal/mol | -4.285 kcal/mol | -3.693 kcal/mol | Ki [1]: 390 ± 9.1 µM; ΔG0, Gibbs free energy of interaction [1]: -4.64 kcal/mol; Ki values fold higher than those for the purines [1]: > 90 fold; Ki (TcoAT1; listed as URD): 147 µM; Ki [2]: 830 ± 86 µM; Tbb P1 ΔG0 [2]: -4.47 kcal/mol
18 | NCCS[As](SCCN)c1ccc(Nc2nc(N)nc(N)n2)cc1 [melarsomine, reference compound] | – | – | – | – | – | EC50 (L. mexicana Cas9; resazurin, promastigotes): > 100 µM; EC50 (L. mexicana SUPKO+TcoAT1; resazurin, promastigotes): > 100 µM; EC50 (L. mexicana SUPKO+TvxNT3; resazurin, promastigotes): > 100 µM; EC50 (L. mexicana SUPKO; [4]): > 100 µM
19 | Cc1ccc(C(=O)Nc2ccc(S(=O)(=O)O)c3cc(S(=O)(=O)O)cc(S(=O)(=O)O)c23)cc1NC(=O)c1cccc(NC(=O)Nc2cccc(C(=O)Nc3cc(C(=O)Nc4ccc(S(=O)(=O)O)c5cc(S(=O)(=O)O)cc(S(=O)(=O)O)c45)ccc3C)c2)c1 [suramin, reference compound] | – | – | – | – | – | EC50 (L. mexicana Cas9; Leishmania mexicana): > 100 µM; EC50 (L. mexicana SUPKO+TcoAT1; Leishmania mexicana): > 100 µM; EC50 (L. mexicana SUPKO+TvxNT3; Leishmania mexicana): > 100 µM; EC50 (L. mexicana SUPKO; Leishmania mexicana, read-out: SUPKO EC50, resazurin, promastigotes): > 100 µM
